Patent US20060069163A1, “Method for treating Alzheimer's disease” (Pfizer Inc, priority 2000, published 2006)
Entries after “also recorded” stand apart in the source; their conditions may differ.

Tested on: β-amyloid peptide (Aβ) synthesized by β APP-CHO cells
Assay: Aβ production in βAPP-CHO cells, sandwich ELISA
Type: cell-based, Chinese hamster
Details: CHO cells overexpressing human βAPP, test compounds added at various dose concentrations to the medium, FIG. 5 and FIG. 6
Excerpt: This experiment was designed to determine the ability of lipid regulating agents to alter the production of β-amyloid peptide (Aβ) in cultured cells, and their consequent activity in preventing and treating Alzheimer's Disease.
Chinese hamster ovary (CHO) cells were stably transfected with a construct to enable the overexpression of the human β-amyloid precursor protein (βAPP) gene to cause increased production of Aβ. The measurement of Aβ synthesized by these β APP-CHO cells was done using a standard sandwich ELISA assay, employing well-characterized antibodies to the N-terminus (6E10) and middle (4G8) of Aβ. This assay is routinely used to measure Aβ in tissues, body fluids, and cell culture media. Cultures of β APP-CHO cells were grown to near confluency, and then the test compounds were added at various dose concentrations to the cell medium.

Structure (SMILES)	reduction in Aβ	reduction in Aβ (listed as Mevastatin)
CC(C)c1cc(C(C)C)c(CC(=O)NS(=O)(=O)Oc2c(C(C)C)cccc2C(C)C)c(C(C)C)c1 [Avasimibe]	substantial dose-dependent reduction	
Cc1ccc(C)c(OCCCC(C)(C)C(=O)O)c1 [CI-719, gemfibrozil]	only moderate changes	
CC(C)(CCCCOCCCCC(C)(C)C(=O)O)C(=O)O [CI-1027]	only moderate changes	
c1coc(CSC2=NCCS2)c1 [PD 69405]	only moderate changes	
CC[C@H](C)C(=O)O[C@H]1C[C@@H](C)C=C2C=C[C@H](C)[C@H](CC[C@@H]3C[C@@H](O)CC(=O)O3)[C@H]21 [lovastatin]	dose-dependent inhibition; also recorded: dramatic dose-dependent reduction	
CC[C@H](C)C(=O)O[C@H]1CCC=C2C=C[C@H](C)[C@H](CC[C@@H]3C[C@@H](O)CC(=O)O3)[C@H]21 [mevastatin]	dose-dependent inhibition	dramatic dose-dependent reduction
